Results from US20260224557A1, “NRF2 ACTIVATOR” (Ivy Cosmetics Co., Ltd., priority 2023, published 2026).

Test system: Nrf2
Experiment: ARE (Antioxidant Response Element)-luciferase reporter assay in ARE-luciferase reporter-stably-expressing HaCaT cell line
Type: cell-based
Conditions: HaCaT ARE-luciferase reporter cells, 24 hours
Method: The Nrf2-activating action of conophylline (crystal) which was isolated and purified from Ervatamia microphylla, which is a plant of the Apocynaceae, by the method described in JP4696303B was evaluated by ARE (Antioxidant Response Element)-luciferase reporter assay, which is known as a monitoring system for the Nrf2 antioxidant pathway. Specifically, a plasmid was obtained by inserting a polynucleotide having a sequence in which ARE sequence was repeated twice ([…]: SEQ ID NO: 1) into the multiple cloning site of pNL2.2 [NlucP/Hygro] Vector (Promega Corporation), which is a vector for luciferase reporter assay, and the plasmid was introduced into HaCaT cells (DKFZ) using Cell Line Nucleofector Kit V (Lonza) by electroporation. After 24 hours, by adding hygromycin at a final concentration of 600 μg/mL and selecting drug-resistant cells, an ARE-luciferase reporter-stably-expressing HaCaT cell line having hygromycin resistance was established. […] After 24 hours, the luciferase activities were measured using Nano-Glo Luciferase Assay System (Promega Corporation) according to the protocol, and thus the Nrf2-activating action of conophylline was evaluated.

In the case of Cc1ccccc1C(=O)N1CCc2cc(-c3nc(NC(=O)Cc4ccc5c(c4)OCO5)sc3C)ccc21 [ML-385], the “luciferase activity when Nrf2 inhibitor ML-385 was added together with conophylline” value (ML-385 20 μM added together with conophylline 1 μg/mL) is reported as “decreased considerably”.

For CC[C@@]12CC(C(=O)OC)=C3Nc4cc5c(cc4[C@@]34CCN(C[C@H]3O[C@H]31)[C@@H]24)[C@@H]1[C@H](O5)[C@@H](O)[C@@]2(CC)CC(C(=O)OC)=C3Nc4c(cc(O)c(OC)c4OC)[C@@]34CCN1[C@@H]24 [conophylline], the “luciferase activity (Nrf2-activating action), relative to DMSO control regarded as 1” value (conophylline at various final concentrations, FIG. 1) was “enhanced the luciferase activity in a concentration-dependent manner”.
